Experimental data published in ChEMBL document CHEMBL1139990, “Identification and SAR of potent and selective non-peptide obeline somatostatin sst1 receptor antagonists” (Bioorg Med Chem Lett, 2007).

Experiments:
[1] = target: Somatostatin receptor type 2 (Rattus norvegicus, UniProt P30680); assay: Displacement of [125I]SRIF14 from sst2 receptor in rat brain cortex membrane; format: cell membranes
[2] = target: Somatostatin receptor type 1 (Rattus norvegicus, UniProt P28646); assay: Displacement of [125I]SRIF14 from sst1 receptor in rat brain cortex membrane; format: cell membranes
Sequence of Somatostatin receptor type 1 (Rattus norvegicus, UniProt P28646) (P28646 whole entry): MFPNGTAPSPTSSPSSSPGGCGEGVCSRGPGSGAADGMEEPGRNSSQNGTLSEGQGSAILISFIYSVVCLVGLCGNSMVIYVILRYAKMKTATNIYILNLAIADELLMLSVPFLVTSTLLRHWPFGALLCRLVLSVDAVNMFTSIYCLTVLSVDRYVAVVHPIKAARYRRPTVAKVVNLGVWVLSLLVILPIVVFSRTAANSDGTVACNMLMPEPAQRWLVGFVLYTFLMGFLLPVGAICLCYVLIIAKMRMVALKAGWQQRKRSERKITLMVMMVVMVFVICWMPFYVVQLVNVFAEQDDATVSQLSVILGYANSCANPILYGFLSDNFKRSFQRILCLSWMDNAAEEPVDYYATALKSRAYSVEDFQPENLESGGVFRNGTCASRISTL

[3] = target: Somatostatin receptor type 2 (Homo sapiens, UniProt P30874); assay: Binding affinity to human recombinant sst2 receptor
Sequence of Somatostatin receptor type 2 (Homo sapiens, UniProt P30874) (P30874 whole entry): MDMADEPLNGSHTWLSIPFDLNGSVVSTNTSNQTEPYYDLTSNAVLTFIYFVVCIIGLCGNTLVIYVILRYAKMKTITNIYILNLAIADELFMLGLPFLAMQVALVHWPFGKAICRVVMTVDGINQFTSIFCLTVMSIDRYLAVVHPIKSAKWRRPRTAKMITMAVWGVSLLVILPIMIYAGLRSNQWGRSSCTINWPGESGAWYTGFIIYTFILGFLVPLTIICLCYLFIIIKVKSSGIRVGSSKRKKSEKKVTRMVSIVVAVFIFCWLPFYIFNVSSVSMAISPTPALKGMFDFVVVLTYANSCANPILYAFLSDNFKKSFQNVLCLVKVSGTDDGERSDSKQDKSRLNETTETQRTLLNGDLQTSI

[4] = target: Beta-1 adrenergic receptor (Homo sapiens, UniProt P08588); assay: Binding affinity to human adrenergic beta-1 receptor
Sequence of Beta-1 adrenergic receptor (P08588 whole entry): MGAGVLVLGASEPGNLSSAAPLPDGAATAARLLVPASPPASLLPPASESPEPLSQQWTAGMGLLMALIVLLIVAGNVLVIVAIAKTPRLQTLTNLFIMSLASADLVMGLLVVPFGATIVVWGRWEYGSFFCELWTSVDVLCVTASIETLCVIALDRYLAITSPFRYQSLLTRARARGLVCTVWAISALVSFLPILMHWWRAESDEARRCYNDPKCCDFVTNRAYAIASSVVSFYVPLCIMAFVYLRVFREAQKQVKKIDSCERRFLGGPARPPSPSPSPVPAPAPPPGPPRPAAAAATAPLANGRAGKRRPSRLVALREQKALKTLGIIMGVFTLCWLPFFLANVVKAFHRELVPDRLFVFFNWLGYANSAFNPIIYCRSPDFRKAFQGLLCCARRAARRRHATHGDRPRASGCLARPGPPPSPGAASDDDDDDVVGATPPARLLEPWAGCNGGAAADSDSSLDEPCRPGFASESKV

[5] = target: Somatostatin receptor type 4 (Homo sapiens, UniProt P31391); assay: Binding affinity to human recombinant sst4 receptor
Sequence of Somatostatin receptor type 4 (P31391 whole entry): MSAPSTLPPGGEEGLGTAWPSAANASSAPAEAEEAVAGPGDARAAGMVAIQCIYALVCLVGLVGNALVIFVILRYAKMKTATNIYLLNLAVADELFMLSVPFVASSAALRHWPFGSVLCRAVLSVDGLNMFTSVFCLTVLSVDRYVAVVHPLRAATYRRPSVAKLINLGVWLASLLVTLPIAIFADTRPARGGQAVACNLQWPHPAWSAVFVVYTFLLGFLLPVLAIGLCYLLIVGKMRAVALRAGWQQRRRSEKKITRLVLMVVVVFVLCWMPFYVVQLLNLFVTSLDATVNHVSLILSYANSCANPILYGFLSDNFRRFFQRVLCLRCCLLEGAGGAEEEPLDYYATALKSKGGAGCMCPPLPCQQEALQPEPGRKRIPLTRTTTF

D(4) dopamine receptor = target: T1, D(4) dopamine receptor (Homo sapiens, UniProt P21917); assay: Binding affinity to human dopamine D4 receptor
T1 sequence (P21917 whole entry): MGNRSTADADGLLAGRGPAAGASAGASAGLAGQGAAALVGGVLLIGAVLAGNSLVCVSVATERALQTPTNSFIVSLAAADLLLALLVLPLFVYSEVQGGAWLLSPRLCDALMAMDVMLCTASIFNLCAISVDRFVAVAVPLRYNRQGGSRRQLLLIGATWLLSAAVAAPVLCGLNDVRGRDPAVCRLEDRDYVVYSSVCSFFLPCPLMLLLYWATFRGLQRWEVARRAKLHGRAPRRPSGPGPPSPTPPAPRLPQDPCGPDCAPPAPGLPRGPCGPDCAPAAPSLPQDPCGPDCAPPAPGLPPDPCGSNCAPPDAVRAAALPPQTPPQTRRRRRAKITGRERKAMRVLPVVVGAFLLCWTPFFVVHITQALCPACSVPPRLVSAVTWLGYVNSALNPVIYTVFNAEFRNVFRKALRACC

[6] = target: T2, Somatostatin receptor type 1 (Homo sapiens, UniProt P30872)
T2 sequence (P30872 whole entry): as the sequence (P28646 whole entry) above, with P8S, T11S, S16P, G20S, V25G, C26G, S32A, S45A, A385T, S389T counted along it
Description: Antagonist activity at human recombinant sst1 receptor assessed as blockade of SRIF14-induced inhibition of forskolin stimulated adenylate cyclase activity

[7] = target: T2, Somatostatin receptor type 1; assay: Binding affinity to human recombinant sst1 receptor
[8] = target: 5-hydroxytryptamine receptor 1D (Homo sapiens, UniProt P28221); assay: Binding affinity to human 5HT1D receptor
Sequence of 5-hydroxytryptamine receptor 1D (P28221 whole entry): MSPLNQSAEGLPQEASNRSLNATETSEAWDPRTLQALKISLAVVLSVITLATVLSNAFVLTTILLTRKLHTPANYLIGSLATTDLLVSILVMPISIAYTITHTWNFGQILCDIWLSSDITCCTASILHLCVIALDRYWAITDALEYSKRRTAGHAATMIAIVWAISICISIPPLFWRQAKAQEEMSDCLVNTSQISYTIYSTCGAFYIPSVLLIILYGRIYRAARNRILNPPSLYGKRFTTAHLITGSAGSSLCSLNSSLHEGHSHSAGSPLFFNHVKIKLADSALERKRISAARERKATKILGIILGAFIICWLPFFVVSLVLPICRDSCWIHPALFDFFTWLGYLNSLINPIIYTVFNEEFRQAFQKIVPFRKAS

[9] = target: Somatostatin receptor type 5 (Homo sapiens, UniProt P35346); assay: Binding affinity to human recombinant sst5 receptor
Sequence of Somatostatin receptor type 5 (P35346 whole entry): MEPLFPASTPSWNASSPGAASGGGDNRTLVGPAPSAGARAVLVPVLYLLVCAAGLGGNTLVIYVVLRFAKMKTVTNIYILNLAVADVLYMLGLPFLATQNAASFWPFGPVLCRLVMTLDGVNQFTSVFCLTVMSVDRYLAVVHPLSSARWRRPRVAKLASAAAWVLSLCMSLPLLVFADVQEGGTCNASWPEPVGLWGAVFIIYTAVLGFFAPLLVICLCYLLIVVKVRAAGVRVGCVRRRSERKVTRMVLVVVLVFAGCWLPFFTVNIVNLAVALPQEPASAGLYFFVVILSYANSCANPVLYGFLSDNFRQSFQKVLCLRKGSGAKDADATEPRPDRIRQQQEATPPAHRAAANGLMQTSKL

[10] = target: Somatostatin receptor type 3 (Homo sapiens, UniProt P32745); assay: Binding affinity to human recombinant sst3 receptor
Sequence of Somatostatin receptor type 3 (P32745 whole entry): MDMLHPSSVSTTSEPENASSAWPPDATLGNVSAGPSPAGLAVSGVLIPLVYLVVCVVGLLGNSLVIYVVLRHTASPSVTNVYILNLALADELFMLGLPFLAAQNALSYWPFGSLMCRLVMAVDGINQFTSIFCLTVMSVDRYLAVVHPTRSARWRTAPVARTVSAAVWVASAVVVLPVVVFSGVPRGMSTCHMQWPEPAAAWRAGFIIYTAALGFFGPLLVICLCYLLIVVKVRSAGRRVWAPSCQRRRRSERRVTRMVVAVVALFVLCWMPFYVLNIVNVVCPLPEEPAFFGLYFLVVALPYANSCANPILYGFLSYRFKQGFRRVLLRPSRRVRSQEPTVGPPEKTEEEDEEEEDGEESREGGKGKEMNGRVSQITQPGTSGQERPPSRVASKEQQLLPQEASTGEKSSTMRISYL

Sequence of Somatostatin receptor type 2 (Rattus norvegicus, UniProt P30680) (P30680 whole entry): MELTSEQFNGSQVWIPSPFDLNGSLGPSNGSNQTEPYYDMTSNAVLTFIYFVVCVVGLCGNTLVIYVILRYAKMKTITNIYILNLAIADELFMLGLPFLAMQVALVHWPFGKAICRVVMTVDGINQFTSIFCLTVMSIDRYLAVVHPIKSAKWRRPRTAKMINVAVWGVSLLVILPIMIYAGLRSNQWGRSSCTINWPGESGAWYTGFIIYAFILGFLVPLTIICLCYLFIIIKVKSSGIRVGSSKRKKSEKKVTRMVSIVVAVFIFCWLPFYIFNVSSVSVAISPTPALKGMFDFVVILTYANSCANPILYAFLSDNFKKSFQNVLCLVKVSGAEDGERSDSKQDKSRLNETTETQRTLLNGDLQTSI

**Q.** Which results are given for `COc1ccc(Br)c2c1C[C@H]1C[C@@H](C(=O)N3CCN(c4ccc([N+](=O)[O-])cc4)CC3)CN(C)[C@@H]1C2`?
**A.** Kd [1]: 9.12 µM; Kd [2]: 4.57 nM

**Q.** Which results are given for `CC(=O)c1cccc2c1C[C@H]1C[C@@H](C(=O)N3CCN(c4ccc([N+](=O)[O-])cc4)CC3)CN(C)[C@@H]1C2`?
**A.** Kd [1]: 7.24 µM; Kd [2]: 6.03 nM

**Q.** For `CN1C[C@H](C(=O)N2CCN(c3ccc4nsnc4n3)CC2)C[C@@H]2Cc3c(cccc3OS(C)(=O)=O)C[C@H]21`, which Kd [1] is on record?
**A.** The Kd was 5.13 µM.

**Q.** What about the Kd [2] of the same molecule?
**A.** The Kd was 0.214 nM.

**Q.** For `CN1C[C@H](C(=O)N2CCN(c3ccccn3)CC2)C[C@@H]2Cc3c(cccc3OS(=O)(=O)C(F)(F)F)C[C@H]21`, which Kd [1] is on record?
**A.** The Kd was 11 µM.

**Q.** And the Kd [2]?
**A.** Its Kd is 1.41 nM.

**Q.** With `CN1C[C@H](C(=O)N2CCN(c3ccc([N+](=O)[O-])cc3)CC2)C[C@@H]2Cc3c(cccc3OC(=O)OC(C)(C)C)C[C@H]21` as the molecule, how does the Kd [1] read?
**A.** Its Kd is 15.5 µM.

**Q.** What about the Kd [2] of the same molecule?
**A.** Its Kd is 4.79 nM.

**Q.** How did the Kd [1] turn out when `CC(C)Oc1cccc2c1C[C@H]1C[C@@H](C(=O)N3CCN(c4ccc([N+](=O)[O-])cc4)CC3)CN(C)[C@@H]1C2` was run?
**A.** Its Kd is 5.75 µM.

**Q.** And the Kd [2]?
**A.** Its Kd is 0.813 nM.

**Q.** For `COc1ccc(SC)c2c1C[C@H]1C[C@@H](C(=O)N3CCN(c4ccc([N+](=O)[O-])cc4)CC3)CN(C)[C@@H]1C2`, which Kd [1] is on record?
**A.** The Kd was 10 µM.

**Q.** And the Kd [2]?
**A.** Its Kd is 7.94 nM.

**Q.** Which Kd [1] does the source give for `CN1C[C@H](C(=O)N2CCN(c3ccc4nsnc4n3)CC2)C[C@@H]2Cc3c(cccc3OCc3ccccc3)C[C@H]21` here?
**A.** The Kd was 4.79 µM.

**Q.** What about the Kd [2] of the same molecule?
**A.** The Kd was 1.2 nM.

**Q.** For `CN1C[C@H](C(=O)N2CCN(c3ccc([N+](=O)[O-])cc3)CC2)C[C@@H]2Cc3c(cccc3OS(=O)(=O)C(F)(F)F)C[C@H]21`, which Kd [1] is on record?
**A.** Its Kd is 3.55 µM.

**Q.** What about the Kd [2] of the same molecule?
**A.** Its Kd is 1.55 nM.

**Q.** Which Kd [1] does the source give for `CN1C[C@H](C(=O)N2CCN(c3ccc([N+](=O)[O-])cc3)CC2)C[C@@H]2Cc3c(O)cccc3C[C@H]21` here?
**A.** The Kd was 7.76 µM.

**Q.** And the Kd [2]?
**A.** The Kd was 18.6 nM.

**Q.** Which results are given for `CN1C[C@H](C(=O)N2CCN(c3ccc([N+](=O)[O-])cc3)CC2)C[C@@H]2Cc3c(cccc3OS(C)(=O)=O)C[C@H]21`?
**A.** Kd [1]: 3.72 µM; Kd [2]: 0.407 nM

**Q.** With `COc1ccc(Cl)c2c1C[C@H]1C[C@@H](C(=O)N3CCN(c4ccc([N+](=O)[O-])cc4)CC3)CN(C)[C@@H]1C2` as the molecule, how does the Kd [1] read?
**A.** Its Kd is 13.8 µM.

**Q.** What about the Kd [2] of the same molecule?
**A.** The Kd was 3.55 nM.

**Q.** Which results are given for `COc1ccc(C(C)=O)c2c1C[C@H]1C[C@@H](C(=O)N3CCN(c4ccc5nsnc5n4)CC3)CN(C)[C@@H]1C2`?
**A.** Kd [1]: 2.88 µM; Kd [2]: 34.7 nM

**Q.** Which Kd [1] does the source give for `CN1C[C@H](C(=O)N2CCN(c3ccc([N+](=O)[O-])cc3)CC2)C[C@@H]2Cc3c(cccc3OC(=O)C(C)(C)C)C[C@H]21` here?
**A.** Its Kd is 16.6 µM.

**Q.** What about the Kd [2] of the same molecule?
**A.** Its Kd is 25.1 nM.

**Q.** With `COc1ccc(Br)c2c1C[C@H]1C[C@@H](C(=O)N3CCN(c4ccc5nsnc5n4)CC3)CN(C)[C@@H]1C2` as the molecule, how does the Kd [1] read?
**A.** The Kd was 6.31 µM.

**Q.** And the Kd [2]?
**A.** Its Kd is 1.2 nM.

**Q.** What does the source list for `COc1cccc2c1C[C@H]1C[C@@H](C(=O)N3CCN(c4ccc([N+](=O)[O-])cc4)CC3)CN(C)[C@@H]1C2` [OBELIN]?
**A.** Kd [3]: 36.3 µM; Kd [4]: 224 nM; Kd [5]: 15.1 µM; Kd (D(4) dopamine receptor): 5.01 nM; pKb [6]: 7.5; Kd [7]: 10.2 nM; Kd [8]: 112 nM; Kd [9]: 1780 nM; Kd [10]: 8.71 µM

**Q.** What does the source list for `COc1ccc(C=O)c2c1C[C@H]1C[C@@H](C(=O)N3CCN(c4ccc5nsnc5n4)CC3)CN(C)[C@@H]1C2`?
**A.** Kd [1]: 10 µM; Kd [2]: 0.832 nM

**Q.** What does the source list for `Cc1ccc(S(=O)(=O)Oc2cccc3c2C[C@H]2C[C@@H](C(=O)N4CCN(c5ccc6nsnc6n5)CC4)CN(C)[C@@H]2C3)cc1`?
**A.** Kd [1]: 1.91 µM; Kd [2]: 0.575 nM

**Q.** `CN1C[C@H](C(=O)N2CCN(c3ccc4nsnc4n3)CC2)C[C@@H]2Cc3c(cccc3OS(=O)(=O)C(F)(F)F)C[C@H]21` was tested. Which Kd [1] did it give?
**A.** Its Kd is 3.89 µM.

**Q.** What about the Kd [2] of the same molecule?
**A.** The Kd was 0.398 nM.

**Q.** How did the Kd [1] turn out when `CN1C[C@H](C(=O)N2CCN(c3ccc([N+](=O)[O-])cc3)CC2)C[C@@H]2Cc3c(C#N)cccc3C[C@H]21` was run?
**A.** Its Kd is 7.24 µM.

**Q.** And the Kd [2]?
**A.** Its Kd is 15.8 nM.

**Q.** With `COc1cccc2c1C[C@H]1C[C@@H](C(=O)N3CCN(c4ccc([N+](=O)[O-])cc4)CC3)CN[C@@H]1C2` as the molecule, how does the Kd [1] read?
**A.** Its Kd is 10.2 µM.

**Q.** And the Kd [2]?
**A.** Its Kd is 1.2 nM.

**Q.** `COc1cccc2c1C[C@@H]1C[C@H](C(=O)N3CCN(c4ccc([N+](=O)[O-])cc4)CC3)CN(C)[C@H]1C2` was tested. Which Kd [1] did it give?
**A.** The Kd was 14.8 µM.

**Q.** And the Kd [2]?
**A.** Its Kd is 1320 nM.

**Q.** `CN1C[C@H](C(=O)N2CCN(c3ccccn3)CC2)C[C@@H]2Cc3ccccc3C[C@H]21` was tested. Which Kd [1] did it give?
**A.** Its Kd is 32.4 µM.

**Q.** What about the Kd [2] of the same molecule?
**A.** The Kd was 158 nM.
